Earlier results in patent publication US8575172B2 (Zysis Limited, priority 2006, dated 2013).
Where two headings read alike, the source gives them in different places. Each block holds one compound with its values, some of them ahead of it.

Columns and labels:
[1] = tested on: histamine receptors
[2] = tested on: alpha adrenergic receptors
[3] = molecular target: CYP2D6 (Homo sapiens, UniProt P10635)
[4] = molecular target: 5-HT2A receptor (Homo sapiens, UniProt P28223)
[5] = single oral dose
[6] = tested on: cholinergic muscarinic receptors
[7] = molecular target: T1, 5-HT1A receptor (Homo sapiens, UniProt P08908)
T1 sequence (P08908 1-422): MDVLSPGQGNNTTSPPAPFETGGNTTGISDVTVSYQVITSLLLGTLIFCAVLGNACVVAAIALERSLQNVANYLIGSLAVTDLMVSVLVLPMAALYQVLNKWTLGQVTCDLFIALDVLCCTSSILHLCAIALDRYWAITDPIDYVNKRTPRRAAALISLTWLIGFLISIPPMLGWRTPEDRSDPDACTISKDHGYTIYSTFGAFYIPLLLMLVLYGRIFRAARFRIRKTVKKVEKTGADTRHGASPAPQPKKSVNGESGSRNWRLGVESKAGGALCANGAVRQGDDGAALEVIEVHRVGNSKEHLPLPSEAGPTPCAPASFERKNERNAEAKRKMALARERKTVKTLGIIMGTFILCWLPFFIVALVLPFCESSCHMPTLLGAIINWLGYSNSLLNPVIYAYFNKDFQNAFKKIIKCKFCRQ

[8] = CYP2D6 poor vs extensive metabolizers

Chain of CYP2D6 (P10635 whole entry): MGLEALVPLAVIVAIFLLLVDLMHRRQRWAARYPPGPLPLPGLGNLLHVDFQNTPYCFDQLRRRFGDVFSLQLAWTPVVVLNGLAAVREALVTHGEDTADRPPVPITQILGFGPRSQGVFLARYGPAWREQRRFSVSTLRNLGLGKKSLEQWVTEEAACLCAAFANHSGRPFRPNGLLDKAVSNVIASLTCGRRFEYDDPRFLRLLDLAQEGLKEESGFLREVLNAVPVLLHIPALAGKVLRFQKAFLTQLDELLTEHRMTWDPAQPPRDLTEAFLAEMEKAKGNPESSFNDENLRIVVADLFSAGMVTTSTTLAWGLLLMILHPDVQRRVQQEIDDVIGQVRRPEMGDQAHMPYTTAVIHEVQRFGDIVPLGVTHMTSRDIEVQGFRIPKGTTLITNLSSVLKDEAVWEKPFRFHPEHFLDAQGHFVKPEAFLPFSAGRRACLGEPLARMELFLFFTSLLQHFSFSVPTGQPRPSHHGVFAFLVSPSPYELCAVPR
Chain of 5-HT2A receptor (P28223 whole entry): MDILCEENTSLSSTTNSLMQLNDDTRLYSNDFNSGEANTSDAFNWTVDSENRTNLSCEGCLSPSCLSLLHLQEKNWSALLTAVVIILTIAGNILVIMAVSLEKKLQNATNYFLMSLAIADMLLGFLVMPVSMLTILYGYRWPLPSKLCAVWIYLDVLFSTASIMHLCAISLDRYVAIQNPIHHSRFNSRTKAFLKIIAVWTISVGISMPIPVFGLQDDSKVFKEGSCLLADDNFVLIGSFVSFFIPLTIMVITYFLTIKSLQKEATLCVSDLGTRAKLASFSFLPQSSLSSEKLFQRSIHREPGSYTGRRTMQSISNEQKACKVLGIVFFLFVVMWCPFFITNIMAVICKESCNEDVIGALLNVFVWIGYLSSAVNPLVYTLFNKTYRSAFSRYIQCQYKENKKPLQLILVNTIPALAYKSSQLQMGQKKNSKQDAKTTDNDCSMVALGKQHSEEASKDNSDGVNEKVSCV

decrease in exposure to the active metabolite in PMs compared to EMs [8]: ~30% | share of aripiprazole AUC in plasma (at steady state): about 40% | mean elimination half-life (in vivo): ~94 h | share of the parent drug exposure in plasma (in vivo): 40%
SMILES: O=c1ccc2ccc(OCCCCN3CCN(c4cccc(Cl)c4Cl)CC3)cc2[nH]1 [dehydro-aripiprazole]

SMILES: O=C1CCc2ccc(OCCCCN3CCN(c4cccc(Cl)c4Cl)CC3)cc2N1 [aripiprazole, 7-[4-[4-(2,3-dichlorophenyl)piperazin-1-yl]butoxy]-3,4-dihydro-1H-quinolin-2-one]
affinity for histamine receptors [1]: moderate affinity | affinity for alpha adrenergic receptors [2]: moderate affinity | effect on the CYP2D6 pathway [3]: does not inhibit or induce | mean elimination half-life (CYP2D6 extensive metabolizers (EMs)): about 75 hours | mean elimination half-life (CYP2D6 poor metabolizers (PMs)): ~146 h | increase in aripiprazole exposure in PMs compared to EMs [8]: ~80% | absorption (administered orally as the solution): well absorbed | absorption (after administration of the IR tablet): well absorbed | higher exposure to the total active moieties in PMs compared to EMs (from a given dose of aripiprazole): ~60% | mean elimination half-life (in vivo): about 75 hours | pharmacokinetics at steady state (in vivo): dose-proportional | profile at the 5-HT2A receptor [4]: antagonist | oral dose recovered unchanged in the feces [5]: approximately 18% | unchanged aripiprazole excreted in the urine [5]: Less than 1% | administered radioactivity recovered in the feces ([5]; [14C]-labeled): ~55% | administered radioactivity recovered in the urine ([5]; [14C]-labeled): approximately 25% | affinity for cholinergic muscarinic receptors [6]: no appreciable affinity | activity at the 5-HT1A receptor [7]: partial agonist
